Data set [1] deals with ALK-mediated tau phosphorylation. The following applies: for ALK-mediated tau phosphorylation: HT22 cells, pGFP-tau + pALK.Fc, 24 hours, dependent on treating amount.
Method: In addition, examined was influence of a tau kinase specific inhibitor on ALK-induced tau phosphorylation. […] Thereafter, western bolt was performed using the cell extract. The used antibodies are as follow: PHF-1 (p-Ser396/404; Davies), CP13 (p-S202; Davies), MC-1 (conformational change; Davies), P35/25 (Cell signaling, #2680), TG5 (220-240; generously provided by Dr. Peter Davies, Albert Einstein College of Medicine, NY), -actin (Sigma, A2668), ERK (Cell signaling, #9102), p-ERK (Cell signaling, #9101), GSK3β (BD Biosciences, 610201), and p-GSK3β (p-Ser9; Cell signaling, #9323).
The subject of a further data set is HT22/Tau #1 cells. Description: Cell death of HT22/Tau #1 cells transfected with ALK.Fc and treated with ALK inhibitor (fluorescence microscopy, cell morphology). It is filed as cell-based, mouse. Conditions: 20 nM, 24 hours; decreased from 42% without inhibitor. The method, then:
Then, cell death was determined through a fluorescence microscopy based on cell morphology. Thereafter, cells were extracted and phosphorylation of tau, ERK, CDK5 and ALK was measured through western blot using respective antibodies. The error bar of the graph indicates mean±S.D. (n=4).

The test system of data set [2] is tau phosphorylation and signaling proteins in brain. Description: Western blot of brain tissue (hippocampus) of TauC3 mice after the behavior tests. It is filed as in vivo, mouse.
The subject of another data set is TauC3 AD model mice. Kind of data set: Memory tests (Y-MAZE, novel object recognition, passive avoidance) in TauC3 AD model mice. It is filed as in vivo, mouse. The following applies: TauC3 mice one-month-old, icv injection 9 pg, after 17 days. The procedure: TauC3 mice, which were produced by the present inventor, are a tau Alzheimer's mouse model showing early memory defect by expressing tauC3 in a mouse brain, wherein the tauC3 has C-terminal of which 20 amino acids were eliminated by caspase-3 (see Korean Patent No. 1213325). […] After 17 days, memory was measured and compared by Y-MAZE (FIGS. 14A and 14B), novel object recognition (FIG. 14C) and passive avoidance test (FIG. 14D). Consequently, as shown in FIGS. 14A to 14D, memory of mock (a control) in TauC3 TG mice was remarkably declined while memory decline of the ALK inhibitor treating group was suppressed in all three types of behavior tests.

The subject of the next data set is HT22 cells. Conditions: 25 iM roscovitine, 1 μM U0126, 24 hours.
Data set [3] deals with tau protein phosphorylation. Description: Western blot of tau phosphorylation (PHF-1, Tau-1 antibodies) in HT22 cells cotransfected with pmALK and pGFP-tau. The following applies: pmALK + pGFP-tau, emodin treatment. It is filed as cell-based, mouse. The procedure:
Subsequently, the present inventor examined aggregation and phosphorylation of tau caused by coexpression of mouse tau and mouse ALK as observed in Experimental Example 1-1 through treatment of an inhibitor of ERK activation and PHF aggregation. Specifically, HT22 cells were cotransfected with pmALK and pGFP-tau constructs, and condensation of cells depending whether emodin was treated or not was counted, wherein emodin is an inhibitor of ERK activation and PHF aggregation. Then, the cells were extracted to examine a phosphorylation level of tau protein by using PHF-1 antibody and Tau-1 antibody.

In data set [4] the test system is tau aggregation caused by ALK in HT22 cells. Description: Tau aggregation in HT22 cells cotransfected with pmALK and pGFP-tau, counted by fluorescence microscopy. It is filed as cell-based, mouse. Conditions: pmALK + pGFP-tau, emodin treatment. The method, then:
To examine whether mouse ALK increases aggregation and phosphorylation of tau, a pGFP-tau-based functional screening method of which availability was validated in the Experiment Example 1 was used. […] The transfection was performed while amounts of cotransfected pcDNA, pGSK3β CA, and pmALK constructs were increased to 100, 200, and 400 ng. After 24 hours of transfection, aggregation of tau was examined as the number of GFP-positive cells appeared to be aggregated by using a fluorescence microscopy. After then, the cells were extracted to examine phosphorylation of tau by analyzing PHF-1 protein expression with western blot. Subsequently, the present inventor examined aggregation and phosphorylation of tau caused by coexpression of mouse tau and mouse ALK as observed in Experimental Example 1-1 through treatment of an inhibitor of ERK activation and PHF aggregation. Specifically, HT22 cells were cotransfected with pmALK and pGFP-tau constructs, and condensation of cells depending whether emodin was treated or not was counted, wherein emodin is an inhibitor of ERK activation and PHF aggregation. Then, the cells were extracted to examine a phosphorylation level of tau protein by using PHF-1 antibody and Tau-1 antibody.

Data set [5] has the same test system. The following applies: emodin, inhibitor of PHF aggregation; given with literature references; cited from earlier work.
Data set [6] has as its system HT22/Tau #1 transformed cell line. Kind of data set: Neurite growth and cell viability in HT22/Tau #1 cells by fluorescence microscopy. It is filed as cell-based, mouse. Conditions: 25 μM pretreatment, 24 hours, neuronal cells expressing tau and ALK.Fc. The procedure: A HT22/Tau #1 transformed cell line was cotransfected with pGFP and pcDNA or pALK after pretreated with 25 μM of roscovitine. Thereafter, the resultant was cultured for 24 hours with/without doxycycline (Dox) treatment. Neurite growth and cell viability were measured through a fluorescence microscopy. Relative ratio of neurites was measured by the number of neuronal cells verses the length of neurites. Consequently, the reduction in neurite growth and the increase in cell death by ALK and tau in neuronal cells expressing tau and ALK.Fc were recovered through the CDK5 inhibitor, roscovitine, treatment (FIG. 9B).

Another data set deals with T1, CDK5 (Mus musculus, UniProt P49615).
T1 construct: endogenous in cells; host or cells: HT22 cells cotransfected with pGFP-tau, pALK.Fc and pCDK5 shRNA #1 or #2
Kind of data set: ALK/Tau cell death in HT22 cells with CDK5 shRNA (LIVE/DEAD Viability/Cytotoxicity kit). It is filed as cell-based. The following applies: pGFP-tau + pALK.Fc + shRNA, 48 hours after transfection. The method, then: Moreover, the present inventor observed neurotoxicity of ALK/Tau by using CDK5 shRNA. HT22 cells cotransfected with pGFP-tau and pALK.Fc constructs together with either pCDK5 shRNA #1 or #2. After 48 hours of the transfection, cell death was measured by using LIVE/DEAD Viability/Cytotoxicity kit (Molecular Probes). As the same as above experimental results, it was observed that cell death induced by ALK/Tau was reduced when endogenous CDK5 expression was inhibited using shRNA (FIG. 8D). The used pCDK5 shRNA #1 was characterized by having a polynucleotide having the nucleotide sequence of SEQ ID No. 1 (5′-[…]-3′), and pCDK5 shRNA #2 was characterized by having a polynucleotide having the nucleotide sequence of SEQ ID No. 2 (5′-[…]-3′). […] The results shown in FIGS. 8A to 8D were mean±S.D obtained by triplicate experiments.

T1 sequence (P49615 whole entry): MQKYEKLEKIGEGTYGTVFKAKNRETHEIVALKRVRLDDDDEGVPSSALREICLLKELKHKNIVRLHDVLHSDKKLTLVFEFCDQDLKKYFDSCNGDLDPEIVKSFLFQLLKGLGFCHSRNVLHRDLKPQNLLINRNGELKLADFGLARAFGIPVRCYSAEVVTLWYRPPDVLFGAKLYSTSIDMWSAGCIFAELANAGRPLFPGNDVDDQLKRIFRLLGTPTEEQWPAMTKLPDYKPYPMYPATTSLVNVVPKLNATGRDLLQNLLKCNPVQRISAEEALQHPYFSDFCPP

In the case of `[Cl-].[Li+]` [LiCl], the tau phosphorylation result in data set [1] (both cells expressing pGFP-tau alone and coexpressing pGFP-tau and pALK.Fc, inhibition levels very similar) is “inhibited”.

Regarding `COc1cc(N2CCC(N3CCN(C)CC3)CC2)ccc1Nc1ncc(Cl)c(Nc2ccccc2S(=O)(=O)C(C)C)n1` [NVP-TAE684], the cell death in the data set with HT22/Tau #1 cells came out at 10%.

Regarding `C[C@@H](Oc1cc(-c2cnn(C3CCNCC3)c2)cnc1N)c1c(Cl)ccc(F)c1Cl` [PF-2341066], in data set [2] (TauC3 mouse brain), the “ERK1/2 activity in brain” value was “reduced”. Further, the “phosphorylation of tau in brain (PHF1, pT231, CP13, 12E8)” value in [2] (TauC3 mouse brain (hippocampus)) was “significantly inhibited”. The “memory decline in all three types of behavior tests” value in the data set with TauC3 AD model mice is “suppressed”.

On to `N#CC(=C(/N)Sc1ccccc1N)/C(C#N)=C(\N)Sc1ccccc1N` [U0126], for which, in the data set with HT22 cells, the “ALK.Fc/Tau-mediated neurotoxicity (cell death)” value was “partially reduced”. Also, the ALK-mediated tau phosphorylation result in [1] is on record as “significantly reduced”.

As to `Cc1cc(O)c2c(c1)C(=O)c1cc(O)cc(O)c1C2=O` [emodin], in [3], the “PHF-1 expression (phosphorylated tau)” value is “decreasing” and the “tau-1 expression (unphosphorylated tau)” value was “increased”. For the same compound, the “tau aggregation caused by ALK” value in data set [4] is given as “inhibited”. For the same compound, in data set [5], the IC50 is 1 to 5 µM.

`CC[C@H](CO)Nc1nc(NCc2ccccc2)c2ncn(C(C)C)c2n1` [roscovitine]: in [6], the “increase in cell death by ALK and tau” value was “recovered”; the “reduction in neurite growth by ALK and tau” value is on record as “recovered”. In the data set with HT22 cells, the “ALK.Fc/Tau-mediated neurotoxicity (cell death)” value was “significantly reduced”. Further, the ALK-mediated tau phosphorylation result in data set [1] is “significantly reduced”.

Turning to “pCDK5 shRNA #1: CDK5 shRNA having the nucleotide sequence of SEQ ID No. 1 (5′-TGACCAAGCTGCCAGACTA-3′)”, in the data set with CDK5, the “cell death induced by ALK/Tau” value was “reduced”.

In the case of “pCDK5 shRNA #2: CDK5 shRNA having the nucleotide sequence of SEQ ID No. 2 (5′-ACTCCACGTCCATCGACAT-3′)”, the “cell death induced by ALK/Tau” value with CDK5 is listed as “reduced”.

Source of the values: patent US20180092920A1, “METHOD FOR TREATING TAU PROTEIN-MEDIATED DEGENERATIVE NEURONAL DISEASE” (SEOUL NATIONAL UNIVERSITY R&DB FOUNDATION, priority 2012, published 2018).
